Source: patent US20240059655A1, “HETEROCYCLIC G-PROTEIN-COUPLED RECEPTOR 52 (GPR52) AGONISTS” (Board of Regents, The University of Texas System, priority 2020, published 2024)
Read-outs that look alike come from different tables or passages of the source.

How the values were obtained:
human GPR52 [1] = biological target: T1, human GPR52 (Homo sapiens (Human), UniProt Q9Y2T5); experiment: Glosensor cAMP assay in HEK293 cells transiently expressing human GPR52; type: cell-based
Target sequence in this assay (Q9Y2T5 whole entry): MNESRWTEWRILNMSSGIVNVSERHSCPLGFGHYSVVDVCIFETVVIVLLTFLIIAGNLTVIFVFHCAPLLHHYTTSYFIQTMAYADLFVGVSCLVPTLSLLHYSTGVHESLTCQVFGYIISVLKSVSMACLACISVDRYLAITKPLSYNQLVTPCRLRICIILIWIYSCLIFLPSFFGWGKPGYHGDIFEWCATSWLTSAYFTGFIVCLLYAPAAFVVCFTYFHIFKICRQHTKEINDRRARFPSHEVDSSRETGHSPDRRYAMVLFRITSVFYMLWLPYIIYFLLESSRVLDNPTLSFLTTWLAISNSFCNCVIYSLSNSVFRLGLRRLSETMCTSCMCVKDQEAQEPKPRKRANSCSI

human GPR52 [2] = biological target: T1, human GPR52; experiment: TANGO β-arrestin recruitment assay in HTLA cells expressing GPR52 TANGO construct; settings: read-out: β-Arrestin Recruitment Emax (%)
Target sequence in this assay (Q9Y2T5 whole entry, looked up, change not shown): as the sequence (Q9Y2T5 whole entry) above

GPR52 = settings: relative to compound 4a
Description: Bias factor calculations. Mean efficacy (Emax) and potency (EC50) were taken from at least three independent experiments for all compounds tested in both the cAMP and β-arrestin recruitment assays. Formulas for bias factor calculations were adapted from Kenakin^37. […] A ΔΔ log(Emax/EC50) value for each compound was calculated by subtraction of Δ log(Emax/EC50)β-arrestin from Δ log(Emax/EC50)cAmP. The inverse log of this ΔΔ log(Emax/EC50) value is the G protein bias factor. Conversely, the β-arrestin bias factor is calculated from the inverse log of ΔΔ log(Emax/EC50) when Δ log(Emax/EC50)cAmP is subtracted from Δ log(Emax/EC50)β-arrestin.

[3] = HEK293, cAMP assay, relative to compound 4 as 100% and 0.5% DMSO as 0%, mean ± SEM, "—" not detected, read-out: Emax (%)

Row | SMILES | Emax (human GPR52 [1]; [3]) | Emax (human GPR52 [1]; HEK293) | also measured
1 | O=C(c1cccc2c1CCN2c1cc(Cc2cc(F)cc(C(F)(F)F)c2)ncn1)N1CC(O)C1 [Compound 30e, (1-(6-(3-Fluoro-5-(trifluoromethyl)benzyl)pyrimidin-4-yl)indolin-4-yl)(3-hydroxyazetidin-1-yl)methanone] | 111 ± 10% | – | –
2 | O=C(NCCO)c1cccc2c1CCN2c1cc(C(O)c2cc(F)cc(C(F)(F)F)c2)ncn1 (stereo not drawn) [Compound 25e] | 134 ± 28% | – | –
3 | O=C(NC(CO)CO)c1cccc(Nc2cc(Cc3cccc(C(F)(F)F)c3)ccn2)c1 [PW0676, N-(1,3-Dihydroxypropan-2-yl)-3-((4-(3-(trifluoromethyl)benzyl)pyridin-2-yl)amino)benzamide] | – | 214 ± 19% | Emax (human GPR52 [2]): 125 ± 12%; G Protein Bias Factor (GPR52): 66.3; β-Arrestin Bias Factor (GPR52): 0.015
4 | O=C(c1cc(F)cc(C(F)(F)F)c1)c1cc(N2CCc3c(C(=O)NCCO)cccc32)ncn1 [Compound 25b, 1-(6-(3-Fluoro-5-(trifluoromethyl)benzoyl)pyrimidin-4-yl)-N-(2-hydroxyethyl)indoline-4-carboxamide] | 22 ± 3% | – | –
5 | O=C(N[C@@H](CO)C(O)c1ccccc1)c1cccc(Nc2cc(Cc3cccc(C(F)(F)F)c3)ccn2)c1 (stereo in doubt) [PW0675, N-((1S)-1,3-Dihydroxy-1-phenylpropan-2-yl)-3-((4-(3-(trifluoromethyl)benzyl)pyridin-2-yl)amino)benzamide] | 188 ± 11% | – | –
6 | O=C(NCCO)c1cccc2c1CCN2c1cc(Sc2cccc(C(F)(F)F)c2)ncn1 [Compound 25l] | 123 ± 6% | – | –
7 | Cc1c(Cc2cc(F)cc(C(F)(F)F)c2)cnnc1N1CCc2c(C(=O)NCCO)cccc21 [Compound 12e, 1-(5-(3-Fluoro-5-(trifluoromethyl)benzyl)-4-methylpyridazin-3-yl)-N-(2-hydroxyethyl)indoline-4-carboxamide] | – | 119 ± 6% | decreased EC50 (loss of potency) on adding a 2-substituent to compound 12b (human GPR52 [1]): > 4 fold
8 | O=C(NCCO)c1cccc2c1CCN2c1nccc(C(O)c2cc(F)cc(C(F)(F)F)c2)n1 (stereo not drawn) [Compound 25d] | 130 ± 9% | – | –
9 | O=C(NCCO)c1cccc2c1CCN2c1ccnc(Cc2cc(F)cc(C(F)(F)F)c2)n1 [Compound 12a, 1-(2-(3-Fuoro-5-(trifluoromethyl)benzyl)pyrimidin-4-yl)-N-(2-hydroxyethyl)indoline-4-carboxamide] | 144% | – | –
10 | COCCNC(=O)c1cccc(Nc2cc(Cc3cccc(C(F)(F)F)c3)ccn2)c1 [PW0825, N-(2-Methoxyethyl)-3-((4-(3-(trifluoromethyl)benzyl)pyridin-2-yl)amino)benzamide] | – | 131 ± 15% | –
11 | O=C(c1cccc2c1CCN2c1cc(Cc2cc(F)cc(C(F)(F)F)c2)ncn1)N(CCO)CCO [Compound 30g, 1-(6-(3-Fluoro-5-(trifluoromethyl)benzyl)pyrimidin-4-yl)-N,N-bis(2-hydroxyethyl)indoline-4-carboxamide] | 119 ± 15% | – | –
12 | O=C(c1cccc(C(F)(F)F)c1)c1cc(N2CCc3c(C(=O)NCCO)cccc32)ncn1 [Compound 25c, N-(2-Hydroxyethyl)-1-(6-(3-(trifluoromethyl)benzoyl)pyrimidin-4-yl)indoline-4-carboxamide] | 22 ± 4% | – | –
13 | O=C(NCCO)c1cccc2c1CCN2c1nccc(C(F)c2cc(F)cc(C(F)(F)F)c2)n1 (stereo not drawn) [Compound 25g, 1-(4-(Fluoro(3-fluoro-5-(trifluoromethyl)phenyl)methyl)pyrimidin-2-yl)-N-(2-hydroxyethyl)indoline-4-carboxamide] | 144 ± 9% | – | –
14 | O=C(NCCCCO)c1cccc(Nc2cc(Cc3cccc(C(F)(F)F)c3)ccn2)c1 [PW0832, N-(4-Hydroxybutyl)-3-((4-(3-(trifluoromethyl)benzyl)pyridin-2-yl)amino)benzamide] | – | 129 ± 8% | –
15 | COC(=O)C(NC(=O)c1cccc(Nc2cc(Cc3cccc(C(F)(F)F)c3)ccn2)c1)[C@@H](C)O (stereo in doubt) [PW0673, Methyl (3-((4-(3-(trifluoromethyl)benzyl)pyridin-2-yl)amino)benzoyl)-D-allothreoninate] | 164 ± 12% | – | –
16 | O=C(c1cccc(Nc2cc(Cc3cccc(C(F)(F)F)c3)ccn2)c1)N1CCOCC1 [PW0823] | – | 93 ± 7% | –
17 | O=C(NCCO)c1cccc2c1CCN2c1cc(Oc2cccc(C(F)(F)F)c2)ncn1 [Compound 25k, N-(2-Hydroxyethyl)-1-(6-(3-(trifluoromethyl)phenoxy)pyrimidin-4-yl)indoline-4-carboxamide] | 99 ± 4% | – | –
18 | O=C(NCCO)c1cccc2c1CCN2c1nccc(Cc2cc(F)cc(C(F)(F)F)c2)n1 [Compound 12d, 1-(4-(3-Fluoro-5-(trifluoromethyl)benzyl)pyrimidin-2-yl)-N-(2-hydroxyethyl)indoline-4-carboxamide] | 138 ± 8% | – | –
19 | O=C(NCCO)c1cccc2c1CCN2c1cc(Nc2cccc(C(F)(F)F)c2)ncn1 [Compound 25j] | 81 ± 2% | – | –
20 | Cc1c(Nc2cc(Cc3ccc(Cl)cc3F)ccn2)cccc1C(=O)NCCO [PW0868, 3-((4-(4-Chloro-2-fluorobenzyl)pyridin-2-yl)amino)-N-(2-hydroxyethyl)-2-methylbenzamide] | – | 131 ± 8% | –
21 | O=C(NCC(F)F)c1cccc(Nc2cc(Cc3cccc(C(F)(F)F)c3)ccn2)c1 [PW0824] | – | 152 ± 7% | –
22 | O=C(NCCO)c1cccc2c1CCN2c1nncc(Cc2cc(F)cc(C(F)(F)F)c2)c1Cl [Compound 12f, 1-(4-Chloro-5-(3-fluoro-5-(trifluoromethyl)benzyl)pyridazin-3-yl)-N-(2-hydroxyethyl)indoline-4-carboxamide] | – | 97 ± 7% | decreased EC50 (loss of potency) on adding a 2-substituent to compound 12b (human GPR52 [1]; cAMP EC50): > 4 fold
23 | O=C(NCCO)c1cccc2c1CCN2c1cc(C(F)c2cccc(C(F)(F)F)c2)ncn1 (stereo not drawn) [Compound 25i, 1-(6-(Fluoro(3-(trifluoromethyl)phenyl)methyl)pyrimidin-4-yl)-N-(2-hydroxyethyl)indoline-4-carboxamide] | 83 ± 5% | – | –
24 | O=C(NCC(O)CO)c1cccc(Nc2cc(Cc3cccc(C(F)(F)F)c3)ccn2)c1 (stereo not drawn) [PW0677, N-(2,3-Dihydroxypropyl)-3-((4-(3-(trifluoromethyl)benzyl)pyridin-2-yl)amino)benzamide] | – | 268 ± 12% | Emax (human GPR52 [2]): 127 ± 7%; G Protein Bias Factor (GPR52): 63.2; β-Arrestin Bias Factor (GPR52): 0.016
25 | O=C(N[C@H]1CC[C@H](O)CC1)c1cccc(Nc2cc(Cc3cccc(C(F)(F)F)c3)ccn2)c1 [PW0674, N-((1r,4R)-4-Hydroxycyclohexyl)-3-((4-(3-(trifluoromethyl)benzyl)pyridin-2-yl)amino)benzamide] | – | 131 ± 13% | –
